Columns and labels:
[1] = tested on: total hippocampal proteins; experiment: Fractional synthesis of total hippocampal proteins; format: in vivo, mouse; conditions: glutamate ICVC vs mock-treated animals
Description: FIG. 7 depicts the effects of ICV glutamate on the relative amounts of MT subpopulations and on total protein synthesis in murine hippocampus. (A, B) Tubulin abundances are measured by Western blot analysis for α-tubulin at 8 hour (A) and 24 hours (B). Subpopulations were total extract (total), free tubulin dimers, tau-associated MTs, tau-nonassociated (MAP2/STOP) MTs and cold stable (CS) MTs. Mock and glutamate infused ICVC mice are shown (cf. FIGS. 6A and B). […] (C) Fractional synthesis of total hippocampal proteins. Glutamate increased protein synthesis versus mock-treated animals (*p<0.01); this effect was blocked by coadministration with 0.66 pmol of Rp-cAMP (**p<0.02).
This hypothesis had not previously been tested in the living brain, however. To test this hypothesis, we used the methods of the invention disclosed herein. Mice were infused with 6 μl water containing 0.48 nmol glutamate (80 μM in the infusate), or glutamate plus 0.66 pmol Rp-cAMP (110 nM in the infusate). Label incorporation into hippocampal tubulin dimers and into microtubule polymers was then quantified after administration of ^2H2O for 8 hours or 24 hours (FIGS. 7A and 7B). […] These findings further strengthen the previously reported correlation between hippocampus glutamate NMDA receptor-dependent learning (long-term potentiation) and protein synthesis (Kandel, E. R. The molecular biology of memory storage: a dialogue between genes and synapses. Science 294, 1030-1038 (2001)). By the same criterion, the glutamate-induced program of changes in hippocampal microtubule dynamics shown in FIGS. 6 and 7 also alters hippocampal total protein synthesis in vivo (data not show), further supporting the capacity of the invention disclosed herein to generate a biochemical record of basic neuroanatomic connectivity in the brain and thereby to reveal the dynamics of synaptogenesis in vivo.

[2] = tested on: microtubule polymer; experiment: Total abundance of microtubule polymer by Western blotting after CFC; format: in vivo, mouse; conditions: conditioned mice, nocodazole 0.2 mg/kg; data not shown
Excerpt: Tubulin was purified using minor modifications of protocols described previously (Fanara, P., Oback, B., Ashman, K., Podtelejnikov, A., Brandt, R. Identification of MINUS, a small polypeptide that functions as a microtubule nucleation suppressor. EMBO J. 18, 565-577 (1999); Fanara, P. et al. In vivo measurement of microtubule dynamics using stable isotope labeling with heavy water. Effect of taxanes. J. Biol. Chem. 279, 49940-49947 (2004). Briefly, cultured neurons were gently scraped off culture plates, washed in phosphate-buffered saline (PBS), and homogenized in microtubule-stabilizing buffer. […] The relative abundance of tubulin in each preparation (Tubulin dimers and TAU5-bound, MAP2-bound, and unbound microtubule fractions) was quantified by Western blot, and tubulin from these fractions was further purified by ion exchange and size exclusion chromatography, as previously described (Fanara, P. et al. In vivo measurement of microtubule dynamics using stable isotope labeling with heavy water. Effect of taxanes. J. Biol. Chem. 279, 49940-49947 (2004)).
To test the role of microtubule/tubulin exchange in hippocampus-dependent memory, we treated animals with nocodazole (0.2 mg/kg), a microtubule-depolymerizing agent, four hours prior to CFC training (FIG. 10A). […] The total abundance of microtubule polymer, as detected by Western blotting, was decreased as well (data not shown).

Row | SMILES | fractional synthesis of total hippocampal proteins [1] | fractional synthesis of total hippocampal proteins ([1]; listed as Glutamate) | total abundance of microtubule polymer (Western blotting) [2]
1 | N[C@@H](CCC(=O)[O-])C(=O)[O-].[K+].[K+] [glutamate, potassium L-glutamate] | alters | increased | –
2 | COC(=O)Nc1nc2ccc(C(=O)c3cccs3)cc2[nH]1 [nocodazole] | – | – | decreased

Reference: US20090197279A1, “MICROTUBULE SYNTHESIS AS A BIOMARKER” (KINEMED, INC., priority 2005, published 2009)
